This passage reports Kd results from ChEMBL document CHEMBL3991601, “The target landscape of clinical kinase drugs” (Science, 2017).

Calls of active or inactive are those of the source. For most assays here, no stated cut-off is given here; in the data, actives have a measured Kd and inactives only a lower limit.

Experiment [1] addresses Epithelial discoidin domain-containing receptor 1 (Homo sapiens, UniProt Q08345).
For experiment [2], the target named is TGF-beta receptor type-2 (Homo sapiens, UniProt P37173).
Chain of TGF-beta receptor type-2 (P37173 whole entry): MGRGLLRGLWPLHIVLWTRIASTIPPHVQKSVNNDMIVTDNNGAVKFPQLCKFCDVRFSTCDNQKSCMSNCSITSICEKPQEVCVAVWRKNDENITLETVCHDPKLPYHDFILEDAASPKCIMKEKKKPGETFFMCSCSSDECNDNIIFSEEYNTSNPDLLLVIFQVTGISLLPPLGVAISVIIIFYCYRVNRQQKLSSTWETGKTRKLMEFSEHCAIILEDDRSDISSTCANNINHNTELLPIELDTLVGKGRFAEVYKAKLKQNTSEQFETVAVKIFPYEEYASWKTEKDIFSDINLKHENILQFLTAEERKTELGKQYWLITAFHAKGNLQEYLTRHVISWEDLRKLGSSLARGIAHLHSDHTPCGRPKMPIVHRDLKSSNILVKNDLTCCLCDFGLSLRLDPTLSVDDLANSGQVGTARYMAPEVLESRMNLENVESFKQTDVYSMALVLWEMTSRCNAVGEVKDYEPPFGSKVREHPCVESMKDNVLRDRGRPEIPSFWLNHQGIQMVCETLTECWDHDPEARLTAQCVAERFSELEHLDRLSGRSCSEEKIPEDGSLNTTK
Experiment [3] has as its target 5'-AMP-activated protein kinase catalytic subunit alpha-1 (Homo sapiens, UniProt Q13131).
For experiment [4], the target named is T1, Activin receptor type-1 (Homo sapiens, UniProt Q04771).
T1 sequence (Q04771 whole entry): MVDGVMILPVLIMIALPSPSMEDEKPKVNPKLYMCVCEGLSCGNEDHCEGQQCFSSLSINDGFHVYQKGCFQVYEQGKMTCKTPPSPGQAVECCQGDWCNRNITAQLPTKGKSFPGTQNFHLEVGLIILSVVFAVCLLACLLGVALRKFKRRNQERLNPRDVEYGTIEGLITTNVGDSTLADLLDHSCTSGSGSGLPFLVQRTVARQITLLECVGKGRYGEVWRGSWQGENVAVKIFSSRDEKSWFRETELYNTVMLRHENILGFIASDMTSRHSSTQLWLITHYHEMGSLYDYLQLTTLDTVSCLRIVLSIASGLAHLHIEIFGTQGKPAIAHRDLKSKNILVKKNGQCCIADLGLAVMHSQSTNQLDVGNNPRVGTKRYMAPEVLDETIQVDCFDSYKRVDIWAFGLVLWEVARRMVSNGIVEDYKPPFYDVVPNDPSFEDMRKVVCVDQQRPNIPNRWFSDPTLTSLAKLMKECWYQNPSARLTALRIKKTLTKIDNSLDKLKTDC

Experiment [5] concerns the target Ephrin type-A receptor 4 (Homo sapiens, UniProt P54764).
The target of experiment [6] is Ras-related protein Rab-6A (Homo sapiens, UniProt P20340).
Chain of Ras-related protein Rab-6A (P20340 whole entry): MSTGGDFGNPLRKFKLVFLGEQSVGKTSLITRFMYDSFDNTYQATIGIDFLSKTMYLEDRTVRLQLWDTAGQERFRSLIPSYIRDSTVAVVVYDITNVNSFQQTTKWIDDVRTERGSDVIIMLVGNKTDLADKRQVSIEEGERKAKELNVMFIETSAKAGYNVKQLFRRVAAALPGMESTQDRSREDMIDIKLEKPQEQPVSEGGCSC
Experiment [7] has as its target T2, DNA replication licensing factor MCM4 (Homo sapiens, UniProt P33991).
T2 sequence (P33991 whole entry): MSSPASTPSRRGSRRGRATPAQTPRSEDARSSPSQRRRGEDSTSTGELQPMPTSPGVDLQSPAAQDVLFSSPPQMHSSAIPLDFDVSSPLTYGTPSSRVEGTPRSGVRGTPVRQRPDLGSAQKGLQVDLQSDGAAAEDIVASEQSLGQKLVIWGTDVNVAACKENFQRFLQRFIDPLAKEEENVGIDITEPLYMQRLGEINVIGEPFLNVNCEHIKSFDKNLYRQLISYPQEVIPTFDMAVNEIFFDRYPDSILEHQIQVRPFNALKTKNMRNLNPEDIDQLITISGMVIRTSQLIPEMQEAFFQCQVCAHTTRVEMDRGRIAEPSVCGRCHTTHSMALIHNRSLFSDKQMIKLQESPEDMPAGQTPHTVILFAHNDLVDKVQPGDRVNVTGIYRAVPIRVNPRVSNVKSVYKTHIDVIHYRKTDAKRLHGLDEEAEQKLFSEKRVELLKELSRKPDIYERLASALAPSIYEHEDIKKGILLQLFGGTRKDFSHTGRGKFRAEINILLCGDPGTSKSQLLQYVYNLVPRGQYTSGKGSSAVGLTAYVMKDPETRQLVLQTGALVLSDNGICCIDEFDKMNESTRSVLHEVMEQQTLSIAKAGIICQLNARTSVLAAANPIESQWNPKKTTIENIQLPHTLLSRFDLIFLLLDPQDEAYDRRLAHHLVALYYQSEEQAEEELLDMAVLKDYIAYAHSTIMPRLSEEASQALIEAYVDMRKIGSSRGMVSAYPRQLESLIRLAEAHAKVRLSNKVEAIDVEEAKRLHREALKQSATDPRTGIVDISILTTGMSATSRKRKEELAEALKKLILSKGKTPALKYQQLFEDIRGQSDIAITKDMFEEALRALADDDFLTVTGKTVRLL

Experiment [8] concerns the target T3, dCTP pyrophosphatase 1 (Homo sapiens, UniProt Q9H773).
T3 sequence (Q9H773 whole entry): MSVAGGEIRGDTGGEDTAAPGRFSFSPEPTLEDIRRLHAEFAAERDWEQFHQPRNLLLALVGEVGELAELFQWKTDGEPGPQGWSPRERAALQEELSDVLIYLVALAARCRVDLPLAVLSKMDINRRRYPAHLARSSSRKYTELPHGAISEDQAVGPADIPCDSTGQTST

The target in experiment [9] is T4, Serine/threonine-protein kinase TBK1 (Homo sapiens, UniProt Q9UHD2).
T4 sequence (Q9UHD2 whole entry): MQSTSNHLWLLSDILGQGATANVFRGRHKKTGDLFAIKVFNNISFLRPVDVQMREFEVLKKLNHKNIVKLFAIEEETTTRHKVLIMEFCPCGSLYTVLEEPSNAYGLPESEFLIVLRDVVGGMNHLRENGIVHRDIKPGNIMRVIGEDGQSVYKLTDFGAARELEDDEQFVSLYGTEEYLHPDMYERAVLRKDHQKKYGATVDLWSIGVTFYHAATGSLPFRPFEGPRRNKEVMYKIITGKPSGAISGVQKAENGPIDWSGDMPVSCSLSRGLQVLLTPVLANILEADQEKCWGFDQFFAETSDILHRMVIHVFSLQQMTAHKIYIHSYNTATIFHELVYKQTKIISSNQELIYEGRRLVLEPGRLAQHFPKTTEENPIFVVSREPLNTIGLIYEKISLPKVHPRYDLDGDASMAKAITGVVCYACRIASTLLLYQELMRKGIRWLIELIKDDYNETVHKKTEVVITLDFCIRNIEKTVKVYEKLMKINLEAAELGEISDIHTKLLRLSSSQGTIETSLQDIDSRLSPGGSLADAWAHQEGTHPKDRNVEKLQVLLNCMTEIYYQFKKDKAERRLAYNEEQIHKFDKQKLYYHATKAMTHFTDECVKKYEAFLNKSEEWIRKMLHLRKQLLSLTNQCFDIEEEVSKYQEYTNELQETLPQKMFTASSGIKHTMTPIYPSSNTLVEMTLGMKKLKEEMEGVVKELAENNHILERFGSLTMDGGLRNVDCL

Chain of Ephrin type-A receptor 4 (P54764 whole entry): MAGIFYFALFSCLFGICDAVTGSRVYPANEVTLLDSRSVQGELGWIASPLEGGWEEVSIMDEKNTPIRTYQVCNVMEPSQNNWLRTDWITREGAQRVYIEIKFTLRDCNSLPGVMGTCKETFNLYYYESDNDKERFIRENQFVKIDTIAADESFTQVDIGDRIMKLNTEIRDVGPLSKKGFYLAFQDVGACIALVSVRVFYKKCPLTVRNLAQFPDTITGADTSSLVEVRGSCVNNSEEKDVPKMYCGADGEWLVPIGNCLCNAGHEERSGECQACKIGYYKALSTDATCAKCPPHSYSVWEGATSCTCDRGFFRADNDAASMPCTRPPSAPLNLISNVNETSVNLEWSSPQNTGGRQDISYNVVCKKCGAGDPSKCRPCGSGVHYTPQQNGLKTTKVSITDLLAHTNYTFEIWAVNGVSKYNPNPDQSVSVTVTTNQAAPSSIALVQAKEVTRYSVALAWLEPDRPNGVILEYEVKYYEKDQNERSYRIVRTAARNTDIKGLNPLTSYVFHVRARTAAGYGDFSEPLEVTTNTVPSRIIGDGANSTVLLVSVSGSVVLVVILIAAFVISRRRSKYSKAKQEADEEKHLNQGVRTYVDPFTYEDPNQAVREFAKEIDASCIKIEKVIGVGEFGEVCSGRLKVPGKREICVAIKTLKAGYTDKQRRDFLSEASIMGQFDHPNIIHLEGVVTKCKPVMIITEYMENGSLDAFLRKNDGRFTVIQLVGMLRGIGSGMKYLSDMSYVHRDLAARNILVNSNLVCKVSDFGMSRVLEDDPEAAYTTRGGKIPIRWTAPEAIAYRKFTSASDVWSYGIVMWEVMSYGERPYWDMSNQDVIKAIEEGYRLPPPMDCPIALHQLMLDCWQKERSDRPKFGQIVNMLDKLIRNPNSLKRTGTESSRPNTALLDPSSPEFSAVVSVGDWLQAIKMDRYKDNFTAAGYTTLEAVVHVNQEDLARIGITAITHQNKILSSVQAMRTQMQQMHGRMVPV
Chain of 5'-AMP-activated protein kinase catalytic subunit alpha-1 (Q13131 whole entry): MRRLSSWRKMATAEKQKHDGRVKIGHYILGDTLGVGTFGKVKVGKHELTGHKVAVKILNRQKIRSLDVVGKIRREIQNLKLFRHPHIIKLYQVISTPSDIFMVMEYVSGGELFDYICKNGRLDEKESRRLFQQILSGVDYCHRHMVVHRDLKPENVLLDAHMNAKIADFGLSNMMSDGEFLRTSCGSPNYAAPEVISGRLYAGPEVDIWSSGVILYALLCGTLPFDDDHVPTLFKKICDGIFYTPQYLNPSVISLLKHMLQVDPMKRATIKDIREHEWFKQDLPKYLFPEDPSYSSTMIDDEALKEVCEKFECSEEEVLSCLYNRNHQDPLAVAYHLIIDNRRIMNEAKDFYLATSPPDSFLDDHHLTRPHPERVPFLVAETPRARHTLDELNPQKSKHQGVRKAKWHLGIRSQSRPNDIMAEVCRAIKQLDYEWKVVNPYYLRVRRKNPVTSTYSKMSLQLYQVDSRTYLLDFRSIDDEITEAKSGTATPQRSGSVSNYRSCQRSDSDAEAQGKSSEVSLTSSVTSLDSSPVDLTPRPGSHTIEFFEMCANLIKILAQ
Chain of Epithelial discoidin domain-containing receptor 1 (Q08345 whole entry, the tested form may be a part): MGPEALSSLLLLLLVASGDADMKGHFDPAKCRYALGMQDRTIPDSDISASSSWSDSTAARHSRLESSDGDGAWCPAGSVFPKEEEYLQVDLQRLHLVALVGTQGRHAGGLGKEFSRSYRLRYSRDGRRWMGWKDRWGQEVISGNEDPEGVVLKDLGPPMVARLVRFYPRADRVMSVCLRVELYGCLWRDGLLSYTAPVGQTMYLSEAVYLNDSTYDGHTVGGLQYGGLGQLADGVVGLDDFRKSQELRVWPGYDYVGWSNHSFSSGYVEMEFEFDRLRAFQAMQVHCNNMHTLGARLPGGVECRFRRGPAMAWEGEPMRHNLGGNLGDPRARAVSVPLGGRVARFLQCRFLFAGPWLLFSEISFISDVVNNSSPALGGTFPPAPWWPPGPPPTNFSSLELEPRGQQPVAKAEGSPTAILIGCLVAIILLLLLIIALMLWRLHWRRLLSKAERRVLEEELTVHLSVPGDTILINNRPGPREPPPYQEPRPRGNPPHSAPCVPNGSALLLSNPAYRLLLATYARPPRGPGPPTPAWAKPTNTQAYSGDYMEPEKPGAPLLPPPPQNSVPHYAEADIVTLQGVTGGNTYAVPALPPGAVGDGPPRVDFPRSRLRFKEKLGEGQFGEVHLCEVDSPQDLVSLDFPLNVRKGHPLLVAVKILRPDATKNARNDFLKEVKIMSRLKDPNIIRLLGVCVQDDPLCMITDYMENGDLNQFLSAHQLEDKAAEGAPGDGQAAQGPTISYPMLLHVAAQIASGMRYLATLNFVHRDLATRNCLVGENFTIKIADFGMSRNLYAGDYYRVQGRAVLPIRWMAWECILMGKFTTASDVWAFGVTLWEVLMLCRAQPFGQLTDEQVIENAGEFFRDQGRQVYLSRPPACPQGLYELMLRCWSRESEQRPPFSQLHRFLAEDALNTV

For `Cc1cc([C@@H](C)Nc2ccccc2C(=O)O)c2nc(N3CCOCC3)cc(=O)n2c1` [AZD-6482], the Kd in experiment [1], in experiment [2], in experiment [3], in experiment [4], in experiment [5] and in [6] was > 30 µM (inactive) each time. Besides, the Kd in experiment [7], in experiment [8] and in experiment [9] was > 30 µM (inactive) throughout.
With `CN1CCC(CNc2ccc3ncc(-c4cccc(OC(F)(F)F)c4)n3n2)CC1` [SGI-1776], the Kd in experiment [1] is > 30 µM (inactive); in experiment [2], > 30 µM (inactive); in experiment [3], > 30 µM (inactive); in [4], 0.458 µM (active); in experiment [5], > 30 µM (inactive); in experiment [6], > 30 µM (inactive). For the same compound, the Kd in [7], in [8] and in experiment [9] was > 30 µM (inactive) each time.
In the case of `CC(C)Nc1cc(-c2c[nH]c(C(=O)N[C@H](CO)c3cccc(Cl)c3)c2)c(Cl)cn1` [ULIXERTINIB], the Kd in experiment [1], in [2], in [3], in experiment [4], in experiment [5] and in experiment [6] was > 30 µM (inactive) each time. Moreover, the Kd in experiment [7], in experiment [8] and in [9] was > 30 µM (inactive) each time.
As for `O=c1sn(-c2cccc3ccccc23)c(=O)n1Cc1ccccc1` [TIDEGLUSIB], the Kd in [1], in [2], in [3], in experiment [4], in [5] and in [6] was > 30 µM (inactive) in each case. Further, the Kd in experiment [7], in [8] and in experiment [9] was > 30 µM (inactive) each time.
As to `CNC(=O)c1cc(Oc2ccc(NC(=O)Nc3ccc(Cl)c(C(F)(F)F)c3)c(F)c2)ccn1` [REGORAFENIB], the Kd in experiment [1] is 0.358 µM (active); in experiment [2], > 30 µM (inactive); in experiment [3], > 30 µM (inactive); in experiment [4], > 30 µM (inactive); in experiment [5] it was > 30 µM (inactive); in [6] it was > 30 µM (inactive). For the same compound, the Kd in experiment [7], in experiment [8] and in experiment [9] was > 30 µM (inactive) in each case.
Take `Cc1ccc(-n2nc(C(C)(C)C)cc2NC(=O)NCc2cc(F)ccc2Oc2ccc3c(cnn3CCO)c2)cc1` [PEXMETINIB]: the Kd in experiment [1] is 0.363 µM (active); in [2] it was > 30 µM (inactive); in experiment [3], > 30 µM (inactive); in experiment [4], > 30 µM (inactive); in [5] it was > 30 µM (inactive); in [6], > 30 µM (inactive). Moreover, the Kd in experiment [7], in experiment [8] and in [9] was > 30 µM (inactive) each time.
With `CCN1CCN(Cc2ccc(-c3cc4c(N[C@H](C)c5ccccc5)ncnc4[nH]3)cc2)CC1` [AEE-788], the equilibrium dissociation constant (Kd) in [1] is 5.22 µM (active); in experiment [2], > 30 µM (inactive); in [3], > 30 µM (inactive); in [4] it was 16.1 µM (active); in experiment [5] it was > 30 µM (inactive); in [6], > 30 µM (inactive). The Kd in experiment [7], in experiment [8] and in experiment [9] was > 30 µM (inactive) throughout.
In the case of `CN(C)C(=O)c1cc2cnc(Nc3ccc(N4CCNCC4)cn3)nc2n1C1CCCC1` [RIBOCICLIB], the Kd in experiment [1], in experiment [2], in experiment [3], in experiment [4], in experiment [5] and in experiment [6] was > 30 µM (inactive) each time. Also, the Kd in experiment [7], in [8] and in experiment [9] was > 30 µM (inactive) throughout.
Regarding `CC[C@H](Nc1ncnc2[nH]cnc12)c1nc2cccc(F)c2c(=O)n1-c1ccccc1` [IDELALISIB], the Kd in experiment [1], in [2], in experiment [3], in experiment [4], in [5] and in [6] was > 30 µM (inactive) in each case. The Kd in [7], in [8] and in experiment [9] was > 30 µM (inactive) throughout.
For the compound `CN1CC[C@@H](c2c(O)cc(O)c3c(=O)cc(-c4ccccc4Cl)oc23)[C@@H]1CO`, the Kd in [1], in experiment [2], in [3], in [4], in experiment [5] and in experiment [6] was > 30 µM (inactive) in each case. The Kd in experiment [7], in [8] and in experiment [9] was > 30 µM (inactive) throughout.
As to `O=C(c1ccc(F)c(F)c1Nc1ccc(I)cc1F)N1CC(O)([C@@H]2CCCCN2)C1` [COBIMETINIB], the Kd in [1], in experiment [2], in experiment [3], in experiment [4], in experiment [5] and in [6] was > 30 µM (inactive) in each case. Besides, the Kd in [7], in [8] and in experiment [9] was > 30 µM (inactive) throughout.
On to `Cc1cc(-c2cc(O)ccc2Cl)cc2nnc(Nc3ccc(OCCN4CCCC4)cc3)nc12`, for which the dissociation constant (Kd) in experiment [1] was 0.003 µM (active); in [2], > 30 µM (inactive); in experiment [3] it was > 30 µM (inactive); in experiment [4], > 30 µM (inactive); in experiment [5] it was 0.002 µM (active); in experiment [6] it was > 30 µM (inactive). Moreover, the Kd in experiment [7], in experiment [8] and in [9] was > 30 µM (inactive) in each case.

By Kd is commonly meant the constant that tells how readily two partners part at equilibrium.
